Test results as given in the OligoGym collection.
Several values for one entry are separate records, joined by “and”; a condition that tells them apart may be missing. Equal entries are not always repeated. HELM strings list units from the 5' end as sugar, base in round brackets, then linkage (d deoxyribose, r ribose, m 2'-O-methyl, p phosphodiester). Strings are as the collection lists them, not checked against the first reports. ss, as = sense and antisense strand; [una] = unlocked nucleic acid; [fl2r] = 2'-fluoro

Settings: siRNA
Note: test system not given here.

Substance	target mRNA knockdown
RNA1{r(G)p.r(G)p.r(G)p.r(A)p.r(A)p.r(A)p.[fl2r](C)p.[fl2r](U)p.r(G)p.r(A)p.r(A)p.r(A)p.r(G)p.r(G)p.[fl2r](C)p.[fl2r](U)p.r(A)p.[fl2r](U)p.r(G)p.r(T)p.r(T)}|RNA2{r(C)p.r(A)p.r(U)p.r(A)p.r(G)p.r(C)p.r(C)p.r(U)p.r(U)p.r(U)p.r(C)p.r(A)p.r(G)p.r(U)p.r(U)p.r(U)p.r(C)p.r(C)p.r(C)p.r(T)p.r(T)}$$$RNA1{StrandType:ss}|RNA2{StrandType:as}$	51%
RNA1{r(G)p.r(G)p.r(G)p.r(A)p.r(A)p.r(A)p.r(C)p.r(U)p.r(G)p.r(A)p.r(A)p.r(A)p.r(G)p.r(G)p.r(C)p.[fl2r](U)p.r(A)p.r(U)p.r(G)p.r(T)p.r(T)}|RNA2{r(C)p.r(A)p.r(U)p.r(A)p.r(G)p.r(C)p.r(C)p.r(U)p.r(U)p.r(U)p.r(C)p.r(A)p.r(G)p.r(U)p.r(U)p.r(U)p.r(C)p.r(C)p.r(C)p.r(T)p.r(T)}$$$RNA1{StrandType:ss}|RNA2{StrandType:as}$	50%
RNA1{r(G)p.r(G)p.r(G)p.r(A)p.r(A)p.r(A)p.r(C)p.r(U)p.r(G)p.r(A)p.r(A)p.r(A)p.r(G)p.r(G)p.r(C)p.r(U)p.r(A)p.r(U)p.r(G)p.r(T)p.r(T)}|RNA2{[fl2r](C)p.r(A)p.[fl2r](U)p.r(A)p.r(G)p.[fl2r](C)p.[fl2r](C)p.[fl2r](U)p.[fl2r](U)p.[fl2r](U)p.[fl2r](C)p.r(A)p.r(G)p.[fl2r](U)p.[fl2r](U)p.[fl2r](U)p.[fl2r](C)p.[fl2r](C)p.[fl2r](C)p.r(T)p.r(T)}$$$RNA1{StrandType:ss}|RNA2{StrandType:as}$	6%
RNA1{r(G)p.r(G)p.r(G)p.r(A)p.r(G)p.r(G)p.r(A)p.[fl2r](U)p.[fl2r](G)p.r(A)p.[fl2r](C)p.r(A)p.r(A)p.r(A)p.r(G)p.r(A)p.r(A)p.r(G)p.r(C)p.r(T)p.r(T)}|RNA2{r(G)p.r(C)p.r(U)p.r(U)p.r(C)p.r(U)p.r(U)p.[fl2r](U)p.r(G)p.r(U)p.[fl2r](C)p.r(A)p.r(U)p.r(C)p.r(C)p.r(U)p.r(C)p.r(C)p.r(C)p.r(T)p.r(T)}$$$RNA1{StrandType:ss}|RNA2{StrandType:as}$	78%
RNA1{r(G)p.r(G)p.r(G)p.r(A)p.r(G)p.r(G)p.r(A)p.r(U)p.[fl2r](G)p.r(A)p.r(C)p.[fl2r](A)p.r(A)p.r(A)p.r(G)p.r(A)p.r(A)p.r(G)p.r(C)p.r(T)p.r(T)}|RNA2{r(G)p.r(C)p.r(U)p.r(U)p.r(C)p.r(U)p.r(U)p.[fl2r](U)p.r(G)p.r(U)p.r(C)p.r(A)p.r(U)p.r(C)p.r(C)p.r(U)p.r(C)p.r(C)p.r(C)p.r(T)p.r(T)}$$$RNA1{StrandType:ss}|RNA2{StrandType:as}$	84%
RNA1{r(G)p.r(G)p.r(G)p.r(A)p.r(G)p.r(G)p.r(A)p.r(U)p.r(G)p.r(A)p.r(C)p.r(A)p.r(A)p.r(A)p.r(G)p.r(A)p.r(A)p.r(G)p.r(C)p.r(T)p.r(T)}|RNA2{r(G)p.[fl2r](C)p.r(U)p.r(U)p.[fl2r](C)p.r(U)p.r(U)p.r(U)p.r(G)p.r(U)p.[fl2r](C)p.r(A)p.r(U)p.[fl2r](C)p.[fl2r](C)p.r(U)p.[fl2r](C)p.[fl2r](C)p.[fl2r](C)p.r(T)p.r(T)}$$$RNA1{StrandType:ss}|RNA2{StrandType:as}$	37%
RNA1{r(G)p.r(G)p.r(G)p.r(A)p.r(G)p.r(G)p.r(U)p.r(C)p.r(U)p.m(U)p.r(A)p.r(G)p.r(A)p.r(A)p.r(A)p.r(A)p.r(C)p.r(A)p.r(C)p.r(T)p.r(T)}|RNA2{r(G)p.r(U)p.r(G)p.r(U)p.r(U)p.r(U)p.r(U)p.r(C)p.m(U)p.r(A)p.r(A)p.r(G)p.r(A)p.r(C)p.r(C)p.r(U)p.r(C)p.r(C)p.r(C)p.r(T)p.r(T)}$$$RNA1{StrandType:ss}|RNA2{StrandType:as}$	84%
RNA1{r(G)p.r(G)p.r(G)p.r(A)p.r(G)p.r(G)p.r(U)p.r(C)p.r(U)p.r(U)p.r(A)p.r(G)p.r(A)p.r(A)p.r(A)p.r(A)p.r(C)p.r(A)p.r(C)p.r(T)p.r(T)}|RNA2{r(G)p.r(U)p.r(G)p.r(U)p.r(U)p.r(U)p.r(U)p.r(C)p.m(U)p.r(A)p.r(A)p.r(G)p.r(A)p.r(C)p.r(C)p.r(U)p.r(C)p.r(C)p.r(C)p.r(T)p.r(T)}$$$RNA1{StrandType:ss}|RNA2{StrandType:as}$	82%
RNA1{r(G)p.r(G)p.r(G)p.r(G)p.r(C)p.r(U)p.r(C)p.r(U)p.r(U)p.r(C)p.m(U)p.r(A)p.r(C)p.r(A)p.m(U)p.r(U)p.r(C)p.r(C)p.r(C)p.r(T)p.r(T)}|RNA2{r(G)p.r(G)p.r(G)p.r(A)p.r(A)p.m(U)p.r(G)p.m(U)p.r(A)p.r(G)p.r(A)p.r(A)p.r(G)p.r(A)p.r(G)p.r(C)p.r(C)p.r(C)p.r(C)p.r(T)p.r(T)}$$$RNA1{StrandType:ss}|RNA2{StrandType:as}$	68%
RNA1{r(G)p.r(G)p.r(G)p.r(G)p.r(C)p.r(U)p.r(C)p.r(U)p.r(U)p.r(C)p.r(U)p.m(A)p.r(C)p.r(A)p.r(U)p.r(U)p.r(C)p.r(C)p.r(C)p.r(T)p.r(T)}|RNA2{r(G)p.r(G)p.r(G)p.r(A)p.r(A)p.r(U)p.r(G)p.m(U)p.r(A)p.r(G)p.r(A)p.r(A)p.r(G)p.r(A)p.r(G)p.r(C)p.r(C)p.r(C)p.r(C)p.r(T)p.r(T)}$$$RNA1{StrandType:ss}|RNA2{StrandType:as}$	72%
RNA1{r(G)p.r(G)p.r(U)p.r(A)p.r(G)p.r(G)p.r(G)p.r(U)p.r(U)p.r(G)p.r(A)p.r(A)p.r(G)p.r(A)p.r(G)p.r(A)p.r(C)p.r(U)p.r(U)p.r(T)p.r(T)}|RNA2{r(A)p.r(A)p.r(G)p.r(U)p.r(C)p.r(U)p.r(C)p.r(U)p.r(U)p.r(C)p.r(A)p.r(A)p.r(C)p.r(C)p.r(C)p.m(U)p.r(A)p.r(C)p.r(C)p.r(T)p.r(T)}$$$RNA1{StrandType:ss}|RNA2{StrandType:as}$	95%
RNA1{r(G)p.r(G)p.r(U)p.r(C)p.r(A)p.r(U)p.r(C)p.r(C)p.r(A)p.r(U)p.r(G)p.r(A)p.r(C)p.r(A)p.r(A)p.r(C)p.r(U)p.r(U)p.r(U)p.d(T)p.d(T)}|RNA2{r(A)p.r(A)p.r(A)p.r(G)p.r(U)p.r(U)p.r(G)p.r(U)p.r(C)p.r(A)p.r(U)p.r(G)p.r(G)p.r(A)p.r(U)p.r(G)p.r(A)p.r(C)p.r(C)p.d(T)p.d(T)}$$$RNA1{StrandType:ss}|RNA2{StrandType:as}$	80% and 94%
RNA1{r(G)p.r(U)p.r(A)p.r(U)p.r(C)p.r(C)p.r(G)p.r(A)p.r(A)p.r(G)p.r(A)p.r(C)p.r(G)p.r(A)p.r(A)p.r(G)p.r(C)p.m(U)p.r(A)p.r(T)p.r(T)}|RNA2{m(U)p.r(A)p.r(G)p.r(C)p.r(U)p.r(U)p.r(C)p.r(G)p.r(U)p.r(C)p.r(U)p.r(U)p.r(C)p.r(G)p.r(G)p.r(A)p.m(U)p.r(A)p.r(C)p.r(T)p.r(T)}$$$RNA1{StrandType:ss}|RNA2{StrandType:as}$	95%
RNA1{r(G)p.r(U)p.r(A)p.r(U)p.r(G)p.r(A)p.r(C)p.r(C)p.r(G)p.r(A)p.r(C)p.r(U)p.r(A)p.r(C)p.r(G)p.r(C)p.r(G)p.r(U)p.r(A)p.r(T)p.r(T)}|RNA2{r(U)p.[una](U)p.r(C)p.r(A)p.r(G)p.r(U)p.r(G)p.r(U)p.r(G)p.r(A)p.r(U)p.r(G)p.r(A)p.r(C)p.r(A)p.r(C)p.r(U)p.r(U)p.r(G)p.r(T)p.r(T)}$$$RNA1{StrandType:ss}|RNA2{StrandType:as}$	0% and 2%
RNA1{r(G)p.r(U)p.r(A)p.r(U)p.r(G)p.r(A)p.r(C)p.r(C)p.r(G)p.r(A)p.r(C)p.r(U)p.r(A)p.r(C)p.r(G)p.r(C)p.r(G)p.r(U)p.r(A)p.r(T)p.r(T)}|RNA2{r(U)p.r(U)p.[una](C)p.r(A)p.r(G)p.r(U)p.r(G)p.r(U)p.r(G)p.r(A)p.r(U)p.r(G)p.r(A)p.r(C)p.r(A)p.r(C)p.r(U)p.r(U)p.r(G)p.r(T)p.r(T)}$$$RNA1{StrandType:ss}|RNA2{StrandType:as}$	45% and 50%
RNA1{r(G)p.r(U)p.r(A)p.r(U)p.r(G)p.r(A)p.r(C)p.r(C)p.r(G)p.r(A)p.r(C)p.r(U)p.r(A)p.r(C)p.r(G)p.r(C)p.r(G)p.r(U)p.r(A)p.r(T)p.r(T)}|RNA2{r(U)p.r(U)p.r(C)p.[una](A)p.r(G)p.r(U)p.r(G)p.r(U)p.r(G)p.r(A)p.r(U)p.r(G)p.r(A)p.r(C)p.r(A)p.r(C)p.r(U)p.r(U)p.r(G)p.r(T)p.r(T)}$$$RNA1{StrandType:ss}|RNA2{StrandType:as}$	94%
RNA1{r(G)p.r(U)p.r(A)p.r(U)p.r(G)p.r(A)p.r(C)p.r(C)p.r(G)p.r(A)p.r(C)p.r(U)p.r(A)p.r(C)p.r(G)p.r(C)p.r(G)p.r(U)p.r(A)p.r(T)p.r(T)}|RNA2{r(U)p.r(U)p.r(C)p.r(A)p.[una](G)p.r(U)p.r(G)p.r(U)p.r(G)p.r(A)p.r(U)p.r(G)p.r(A)p.r(C)p.r(A)p.r(C)p.r(U)p.r(U)p.r(G)p.r(T)p.r(T)}$$$RNA1{StrandType:ss}|RNA2{StrandType:as}$	92%
RNA1{r(G)p.r(U)p.r(A)p.r(U)p.r(G)p.r(A)p.r(C)p.r(C)p.r(G)p.r(A)p.r(C)p.r(U)p.r(A)p.r(C)p.r(G)p.r(C)p.r(G)p.r(U)p.r(A)p.r(T)p.r(T)}|RNA2{r(U)p.r(U)p.r(C)p.r(A)p.r(G)p.[una](U)p.r(G)p.r(U)p.r(G)p.r(A)p.r(U)p.r(G)p.r(A)p.r(C)p.r(A)p.r(C)p.r(U)p.r(U)p.r(G)p.r(T)p.r(T)}$$$RNA1{StrandType:ss}|RNA2{StrandType:as}$	78%
RNA1{r(G)p.r(U)p.r(A)p.r(U)p.r(G)p.r(A)p.r(C)p.r(C)p.r(G)p.r(A)p.r(C)p.r(U)p.r(A)p.r(C)p.r(G)p.r(C)p.r(G)p.r(U)p.r(A)p.r(T)p.r(T)}|RNA2{r(U)p.r(U)p.r(C)p.r(A)p.r(G)p.r(U)p.[una](G)p.r(U)p.r(G)p.r(A)p.r(U)p.r(G)p.r(A)p.r(C)p.r(A)p.r(C)p.r(U)p.r(U)p.r(G)p.r(T)p.r(T)}$$$RNA1{StrandType:ss}|RNA2{StrandType:as}$	86%
RNA1{r(G)p.r(U)p.r(A)p.r(U)p.r(G)p.r(A)p.r(C)p.r(C)p.r(G)p.r(A)p.r(C)p.r(U)p.r(A)p.r(C)p.r(G)p.r(C)p.r(G)p.r(U)p.r(A)p.r(T)p.r(T)}|RNA2{r(U)p.r(U)p.r(C)p.r(A)p.r(G)p.r(U)p.r(G)p.[una](U)p.r(G)p.r(A)p.r(U)p.r(G)p.r(A)p.r(C)p.r(A)p.r(C)p.r(U)p.r(U)p.r(G)p.r(T)p.r(T)}$$$RNA1{StrandType:ss}|RNA2{StrandType:as}$	90%
